Legend:
SMYD3 [1] = molecular target: T1, SMYD3 (Homo sapiens (Human), UniProt Q9H7B4); test: SMYD3 biochemical assay (SMYD3 enzyme assay on MEKK2 protein substrate, scintillation proximity assay); settings: 3H-SAM, SPA, IC50 values are an average of n = 1 to n = 50, read-out: SMYD3 Biochem IC50
Excerpt: S-adenosylmethionine (SAM), S-adenosylhomocysteine (SAH), Tris, Tween20, dimethylsulfoxide (DMSO), bovine skin gelatin (BSG), and Tris(2-carboxyethyl)phosphine hydrochloride solution (TCEP) were purchased from Sigma-Aldrich at the highest level of purity possible. ^3H-SAM was purchase from American Radiolabeled Chemicals with a specific activity of 80 Ci/mmol. 384-well opaque white OptiPlates and SPA beads (Perkin Elmer, catalog # RPNQ0013) were purchased from PerkinElmer.
N-terminally GST-tagged MEKK2 (MAP3K2) protein corresponding to reference sequence AAF63496.3 was purchased from Life Technologies (catalog # PV4010). […] Protein identity was confirmed by MS/MS analysis after proteolytic digestion. The protein sequence used was:
Full-length human SMYD3 isoform 1 (BAB86333) was inserted into a modified pET21b plasmid containing a His6 tag and TEV and SUMO cleavage sites. Because two common variants of SMYD3 exist in the population, site directed mutagenesis was subsequently performed to change amino acid 13 from an asparagine to a lysine, resulting in plasmid pEPZ533.
E. coli (BL21 codonplus RIL strain, Stratagene) were transformed with plasmid pEPZ553 by mixing competent cells and plasmid DNA and incubating on ice for 30minutes followed by heat shock at 42° C. for 1 minute and cooling on ice for 2 minutes. Transformed cells were grown and selected on LB agar with 100 μg/mL ampicillin and 17 μg/mL chloramphenicol at 37° C. overnight. A single clone was used to inoculate 200 mL of LB medium with 100 μg/mL ampicillin and 17 μg/mL chloramphenicol and incubated at 37° C. on an orbital shaker at 180 rpm. Once in log growth, the culture was diluted 1:100 into 2 L of LB medium and grown until OD600 was about 0.3 after which the culture was incubated at 15° C. and 160 rpm. Once OD600 reached about 0.4, IPTG was added to a final concentration of 0.1 mM and the cells were grown overnight at 15° C. and 160 rpm. Cells were harvested by centrifugation at 8000 rpm, for 4 minutes at 4° C. and stored at −80° C. for purification.
The column was washed with Buffer B (Buffer A plus 20 mM imidazole) and His-tagged SMYD3 was eluted with Buffer C (Buffer A plus 300 mM imidazole). The His tag, TEV and SUMO cleavage sites were removed generating native SMYD3 by addition of ULP1 protein at a ratio of 1:200 (ULP1:SMYD3). Imidazole was removed by dialysis overnight in Buffer A. The dialyzed solution was applied to a second Nickel column and the native SMYD3 protein was collected from the column flow-through. The flow-through was dialyzed in Buffer D (25 mM Tris, 5% glycerol, 5 mM β-mercaptoethanol, 50 mM NaCl, pH7.8) and ULP1 was removed using a Q sepharose fast flow column.
General Procedure for SMYD3 Enzyme Assays on MEKK2 Protein Substrate
The assays were all performed in a buffer consisting of 25 mM Tris-Cl pH 8.0, 1 mM TCEP, 0.005% BSG, and 0.005% Tween 20, prepared on the day of use. Compounds in 100% DMSO (1 ul) were spotted into a 384-well white opaque OptiPlate using a Bravo automated liquid handling platform outfitted with a 384-channel head (Agilent Technologies). DMSO (1 ul) was added to Columns 11, 12, 23, 24, rows A-H for the maximum signal control and 1 ul of SAH, a known product and inhibitor of SMYD3, was added to columns 11, 12, 23, 24, rows I-P for the minimum signal control. A cocktail (40 ul) containing the SMYD3 enzyme was added by Multidrop Combi (Thermo-Fisher). The compounds were allowed to incubate with SMYD3 for 30 min at room temperature, then a cocktail (10 ul) containing SAM and MEKK2 was added to initiate the reaction (final volume=51 ul).

SMYD3 [2] = molecular target: T1, SMYD3; test: SMYD3 cell assay (Trimethyl-MEKK2 In-Cell Western in 293T/17 cells); assay type: cell-based; settings: 293T/17 cells transfected with MEKK2-flag and SMYD3, trimethyl-MEKK2 In-Cell Western, 24 hours, top concentration 40 μM; average of n = 1 to n = 50
Excerpt: Trimethyl-MEKK2-In-Cell Western Assay
293T/17 adherent cells were purchased from ATCC (American Type Culture Collection), Manassas, Va., USA. MEM/Glutamax medium, Optimem Reduced Serum medium, penicillin-streptomycin, 0.05% trypsin and 1×D-PBS were purchased from Life Technologies, Grand Island, N.Y., USA. PBS-10× was purchased from Ambion, Life Technologies, Grand Island, N.Y., USA. PBS with Tween 20 (PBST (10×)) was purchased from KPL, Gaithersburg, Md., USA. Tet System FBS-approved FBS US Source was purchased from Clontech, Mountain View, Calif., USA. Odyssey blocking buffer, 800 CW goat anti-rabbit IgG (H+L) antibody, 680 CW Goat anti-mouse IgG (H+L) and Licor Odyssey infrared scanner were purchased from Licor Biosciences, Lincoln, Nebr., USA. Tri-methyl-Lysine [A260]-MEKK2 antibody, MEKK2 and SMYD3 plasmids were made at Epizyme. Anti-flag monoclonal mouse antibody was purchased from Sigma, St. Louis, Mo., USA. Methanol was purchased from VWR, Franklin, Mass., USA. 10%) Tween 20 was purchased from KPL, Inc., Gaithersburg, Md., USA. Fugene was purchased from Promega, Madison, Wis., USA. The Biotek ELx405 was purchased from BioTek, Winooski, Vt., USA. The multidrop combi was purchased from Thermo Scientific, Waltham, Mass., USA.
293T/17 adherent cells were maintained in growth medium (MEM/Glutamax medium supplemented with 10% v/v Tet System FBS and cultured at 37° C. under 5% CO2.
Cell Treatment, In Cell Western (ICW) for Detection of Trimethyl-Lysine-MEKK2 and MEKK2
293T/17 cells were seeded in assay medium at a concentration of 33,333 cells per cm^2 in 30 mL medium per T150 flask and incubated at 37° C. under 5% CO2. Plasmids were prepared for delivery to cells by first mixing 1350 μL Opti-MEM with Fugene (81 μL) in a sterile Eppendorf and incubated for five minutes at room temperature (RT). MEKK2-flag (13.6 ug/T150) MEKK2 p3XFlag-CMV-14 with C-3XFlag and SMYD3 (0.151 ug/T150) SMYD3 p3XFlag-CMV-14 without C-3XFlag plasmids were aliquotted to a 1.7 mL sterile microfuge tube. The gene ID for MEKK2 and SMYD3 is NM_006609.3 and Q9H7B4, respectively. Entire volume of Opti-MEM/Fugene mixture was then added to a microfuge tube containing DNA plasmid, mixed and then incubated××15 minutes at RT. The medium on the 293T/17 cells was refreshed, and the DNA/Fugene complex is added aseptically to each flask, rocked gently, and incubated at 37 C for 5 hours. Medium was then removed, and cells were washed once with PBS in the flask. Trypsin 0.05% (3 mL) was added and cells incubated for three minutes. Room temperature MEM+10% Tet system FBS was added and cells were mixed gently, and counted using the Vi-cell. Cells were seeded at 100,000 cells/mL in 50 μL MEM/10% Tet FBS/Pen/Strep to a 384 well black/clear poly-D-lysine coated plate containing test agent diluted in DMSO. The final top concentration of test compound was 40 μM. […] Plates were incubated ×30 minutes at RT in low-airflow area, followed by incubation at 37° C. under 5% CO2 for 24 hours. Medium was aspirated from all wells of assay plates prior to fixation and permeabilization with ice cold (−20° C.) methanol (90 μL/well) for ten minutes. Plates were rinsed with PBS three times on BioTek ELx405. PBS was removed with a final aspiration, and Odyssey blocking buffer (50 μL/well) was added to each well and incubated for one hour at RT. Primary antibody solution was prepared (anti-trimethyl-MEKK2 at 1:600 dilution plus mouse anti-flag antibody at 1:10,000 dilution in diluent (Odyssey Blocking buffer+0.1% Tween 20)) and 20 μL per well was dispensed using the Multidrop Combi. Assay plates were then sealed with foil, and incubated overnight at 4° C. Plates were washed five times with PBS-Tween (IX) on Biotek ELx405 and blotted on paper towel to remove excess reagent. […]

T1 sequence (Q9H7B4 whole entry): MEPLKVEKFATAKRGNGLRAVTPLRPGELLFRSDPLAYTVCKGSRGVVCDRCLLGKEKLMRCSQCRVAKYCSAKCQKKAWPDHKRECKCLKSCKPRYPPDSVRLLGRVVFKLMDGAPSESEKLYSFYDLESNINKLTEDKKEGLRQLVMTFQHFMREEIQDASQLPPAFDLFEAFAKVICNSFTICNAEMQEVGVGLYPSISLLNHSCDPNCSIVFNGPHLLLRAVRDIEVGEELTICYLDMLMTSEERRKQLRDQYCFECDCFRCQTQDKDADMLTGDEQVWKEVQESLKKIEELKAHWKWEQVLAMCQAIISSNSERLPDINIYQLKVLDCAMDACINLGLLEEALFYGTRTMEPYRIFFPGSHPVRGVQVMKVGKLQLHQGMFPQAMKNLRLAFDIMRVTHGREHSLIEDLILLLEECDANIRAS

IC50 (SMYD3 [1]) [nM] | IC50 (SMYD3 [2]) [nM] | SMILES
562 | 5150 | N[C@H]1CC[C@H](C(=O)N[C@H]2CC[C@H](NC(=O)c3cc(C4CC4)on3)CC2)C1 [compound 32, N-((1S,4r)-4-((1S,3S)-3-aminocyclopentane-1-carboxamido)cyclohexyl)-5-cyclopropylisoxazole-3-carboxamide]
28.6 | 255 | C[C@@H](N)CC(=O)N[C@H]1CC[C@H](NC(=O)c2cc(C3CC3)on2)[C@H](Cc2ccccc2)C1 (mixture of isomers) [Cpd. No. 39, Mixture of N-((1S,2R,4S)-4-((R)-3-aminobutanamido)-2-benzylcyclohexyl)-5-cyclopropylisoxazole-3-carboxamide and N-((1R,2S,4R)-4-((R)-3-aminobutanamido)-2-benzylcyclohexyl)-5-cyclopropylisoxazole-3-carboxamide; (1S,2R,4S) isomer is depicted.]
428 | > 40000 | NCCCN(C(=O)CCN)[C@H]1CC[C@H](NC(=O)c2cc(C3CC3)on2)CC1 [compound 33, N-((1r,4r)-4-(3-amino-N-(3-aminopropyl)propanamido)cyclohexyl)-5-cyclopropylisoxazole-3-carboxamide]
188 | 1970 | O=C(CCN1CCCC1)N[C@H]1CC[C@H](NC(=O)c2cc(C3CC3)on2)CC1 [compound 11, 5-cyclopropyl-N-((1r,4r)-4-(3-(pyrrolidin-1-yl)propanamido)cyclohexyl)isoxazole-3-carboxamide]
400 | 10100 | C[C@@H](N)CC(=O)N[C@H]1CC[C@H](NC(=O)c2cc(C3CC3)on2)CC1 [compound 5, N-((1R,4r)-4-((R)-3-aminobutanamido)cyclohexyl)-5-cyclopropylisoxazole-3-carboxamide]
97.3 | 964 | CCc1cc(C(=O)N[C@H]2CC[C@H](NC(=O)C[C@@H](C)N)C[C@H]2CC)no1 (mixture of isomers) [Cpd. No. 6, Mixture of N-((1S,2R,4S)-4-((R)-3-aminobutanamido)-2-ethylcyclohexyl)-5-ethylisoxazole-3-carboxamide and N-((1R,2S,4R)-4-((R)-3-aminobutanamido)-2-ethylcyclohexyl)-5-ethyl-isoxazole-3-carboxamide; (1S,2R,4S) isomer is depicted]
1180 |  | N[C@H]1C[C@@H](C(=O)N[C@H]2CC[C@H](NC(=O)c3cc(C4CC4)on3)CC2)C1 [compound 14, N-((1R,4r)-4-((1s,3S)-3-aminocyclobutane-1-carboxamido)cyclohexyl)-5-cyclopropylisoxazole-3-carboxamide]
8220 |  | C[C@@H](N)CC(=O)N[C@H]1CC[C@H](N(Cc2ccccc2)C(=O)c2cc(C3CC3)on2)CC1 [compound 45, N-((1R,4r)-4-((R)-3-aminobutanamido)cyclohexyl)-N-benzyl-5-cyclopropylisoxazole-3-carboxamide]
671 |  | O=C(CCNCc1ccccc1)N[C@H]1CC[C@H](NC(=O)c2cc(C3CC3)on2)CC1 [compound 18, N-((1r,4r)-4-(3-(benzylamino)propanamido)cyclohexyl)-5-cyclopropylisoxazole-3-carboxamide]
16400 |  | COCCN(C(=O)c1cc(C2CC2)on1)[C@H]1CC[C@H](NC(=O)CCN)CC1 [compound 44, N-((1r,4r)-4-(3-aminopropanamido)cyclohexyl)-5-cyclopropyl-N-(2-methoxyethyl)isoxazole-3-carboxamide]
5710 |  | C[C@@H](N)CC(=O)N[C@H]1CC[C@H](N(CCc2ccccc2)C(=O)c2cc(C3CC3)on2)CC1 [compound 41, N-((1R,4r)-4-((R)-3-aminobutanamido)cyclohexyl)-5-cyclopropyl-N-phenethylisoxazole-3-carboxamide]
8230 |  | CC(C)CCN[C@H]1CC[C@H](NC(=O)c2cc(C3CC3)on2)CC1 [compound 25, 5-cyclopropyl-N-((1r,4r)-4-(isopentylamino)cyclohexyl)isoxazole-3-carboxamide]
4490 |  | CC(C)CN(C(=O)c1cc(C2CC2)on1)[C@H]1CC[C@H](NC(=O)CCN)CC1 [compound 43, N-((1r,4r)-4-(3-aminopropanamido)cyclohcxyl)-5-cyclopropyl-N-isobutylisoxazole-3-carboxamide]
